For assay [1], the target named is T1, Npun02004178 protein (fatty aldehyde decarbonylase) (Nostoc punctiforme, UniProt B2J1M1).
T1 construct: His-tag (N); made in house; host or cells: E. coli BL21 (DE3)
T1 sequence (B2J1M1 1-232): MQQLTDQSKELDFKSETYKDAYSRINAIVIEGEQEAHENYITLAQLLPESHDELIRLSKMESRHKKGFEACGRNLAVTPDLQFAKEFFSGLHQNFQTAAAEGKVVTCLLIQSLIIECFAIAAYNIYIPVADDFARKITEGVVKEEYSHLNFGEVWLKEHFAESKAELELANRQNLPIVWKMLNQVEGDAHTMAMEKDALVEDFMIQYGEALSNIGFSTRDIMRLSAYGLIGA
Kind of assay: in-vitro fatty aldehyde decarbonylase assay with purified Npun02004178 protein. Particulars: 200 μM octadecanal, 30 μM Npun02004178, spinach ferredoxin, ferredoxin reductase and NADPH; 37° C., 2 h. In kind it is biochemical, Nostoc punctiforme PCC73102. Here is the method:
The genomic DNA encoding N. punctiforme PCC73102 Npun02004178 (SEQ ID NO:5) was cloned into the NdeI and XhoI sites of vector pET-15b under the control of the T7 promoter. The resulting Npun02004178 protein contained an N-terminal His-tag. An E. coli BL21 strain (DE3) (Invitrogen) was transformed with the plasmid by routine chemical transformation techniques. Protein expression was carried out by first inoculating a colony of the E. coli strain in 5 mL of LB media supplemented with 100 mg/L of carbenicillin and shaken overnight at 37° C. to produce a starter culture. This starter cultures was used to inoculate 0.5 L of LB media supplemented with 100 mg/L of carbenecillin. […] Protein concentration was determined using the Bradford assay (Biorad). […]
To test Npun02004178 protein for decarbonylation activity, the following enzyme assays were set-up. […] Samples were analyzed by GC/MS using the following parameters: run time: 13.13 min; column: HP-5-MS Part No. 19091S-433E (length of 30 meters; I.D.: 0.25 mm narrowbore; film: 0.25 iM); inject: 1 ii Agilent 6850 inlet; inlet: 300 C splitless; carrier gas: helium; flow: 1.3 mL/min; oven temp: 75° C. hold 5 min, 320 at 40° C./min, 320 hold 2 min; det: Agilent 5975B VL MSD; det. temp: 330° C.; scan: 50-550 M/Z. Heptadecane from Sigma was used as an authentic reference for determining compound retention time and fragmentation pattern. […]

Assay [2] has as its target T2, PCC7942_orf1594 protein (acyl-ACP reductase) (Synechococcus elongatus, UniProt Q54765).
T2 construct: His-tag (C); made in house; host or cells: E. coli BL21 (DE3)
T2 sequence (Q54765 1-341): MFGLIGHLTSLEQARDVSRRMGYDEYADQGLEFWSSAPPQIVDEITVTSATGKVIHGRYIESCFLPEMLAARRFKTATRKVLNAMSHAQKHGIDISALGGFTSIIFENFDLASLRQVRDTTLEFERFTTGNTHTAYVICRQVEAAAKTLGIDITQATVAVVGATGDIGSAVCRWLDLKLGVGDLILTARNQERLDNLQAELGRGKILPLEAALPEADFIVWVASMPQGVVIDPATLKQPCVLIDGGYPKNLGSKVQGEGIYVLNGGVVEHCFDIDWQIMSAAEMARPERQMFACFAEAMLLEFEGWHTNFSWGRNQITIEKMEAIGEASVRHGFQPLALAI
The assay is described as follows: acyl-ACP or acyl-CoA reductase enzyme assay with purified PCC7942_orf1594 protein. In kind it is biochemical, Synechococcus elongatus PCC7942. The following applies: for reduction of acyl substrate to fatty aldehyde by PCC7942_orf1594: GC/MS detection of octadecanal/octadecenal, NADPH and divalent cation required. Here is the method:
The genomic DNA encoding S. elongatus […] orf1594 (SEQ ID NO:65) was cloned into the NcoI and XhoI sites of vector pET-28b under the control of the T7 promoter. The resulting PCC7942_orf1594 protein contained a C-terminal His-tag. An E. coli BL21 strain (DE3) (Invitrogen) was transformed with the plasmid and PCC7942_orf1594 protein was expressed and purified as described in Example 22. The protein solution was stored in the following buffer: 50 mM sodium phosphate, pH 7.5, 100 mM NaCl, 1 mM THP, 10% glycerol. Protein concentration was determined using the Bradford assay (Biorad). 2 mg/mL of PCC7942_orf1594 protein was obtained.
To test PCC7942_orf1594 protein for acyl-ACP or acyl-CoA reductase activity, the following enzyme assays were set-up. 100 μL reactions were set-up in 50 mM Tris-HCl buffer at pH 7.5 with the following components at their respective final concentrations: 10 μM of purified PCC7942_orf1594 protein, 0.01-1 mM acyl-CoA or acyl-ACP, 2 mM MgCl2, 0.2-2 mM NADPH. The reactions were incubated for 1 h at 37° C. and where stopped by adding 100 μL ethyl acetate (containing 5 mg/l 1-octadecene as internal standard). Samples were vortexed for 15 min and centrifuged at max speed for 3 min for phase separation. 80 μL of the top layer were transferred into GC glass vials and analyzed by GC/MS as described in Example 26. The amount of aldehyde formed was calculated based on the internal standard.

For the molecule `CCCCCCCCCCCCCCCCCC=O` [octadecanal], in assay [1], the “in-vitro decarbonylation to heptadecane” value is reported as “in-vitro conversion of octadecanal to heptadecane was observed”.
Turning to `NC(=O)C1=CN([C@@H]2O[C@H](COP(=O)(O)OP(=O)(O)OC[C@H]3O[C@@H](n4cnc5c(N)ncnc54)[C@H](O)[C@@H]3O)[C@@H](O)[C@H]2O)C=CC1` [NADH, reference compound], the “support of reductase activity as electron donor” value in assay [2] (octadecanoyl-CoA as substrate, Mg2+) is “did not support reductase activity”.
Turning to octadecenoyl-ACP, in assay [2], the “reduction of acyl substrate to fatty aldehyde by PCC7942_orf1594” value (shortened to “reduction of acyl substrate”) was “also able to reduce”.
Regarding octadecenoyl-CoA, in assay [2], the “reduction of acyl substrate” value is listed as “also able to reduce”.
As to `CCCCCCCCCCCCCCCCCC(=O)SCCNC(=O)CCNC(=O)[C@H](O)C(C)(C)COP(=O)(O)OP(=O)(O)OC[C@H]1O[C@@H](n2cnc3c(N)ncnc32)[C@H](O)[C@@H]1OP(=O)(O)O` [octadecanoyl-CoA], the “reduction of acyl substrate” value in assay [2] is given as “able to reduce octadecanoyl-CoA to octadecanal”.
With `NC(=O)C1=CN([C@@H]2O[C@H](COP(=O)(O)OP(=O)(O)OC[C@H]3O[C@@H](n4cnc5c(N)ncnc54)[C@H](OP(=O)(O)O)[C@@H]3O)[C@@H](O)[C@H]2O)C=CC1` [NADPH, reference compound], the Km in assay [2] (in the presence of 0.5 mM octadecanoyl-CoA, read-out: Km value for NADPH) was found to be 400 ± 80 µM.

One may read the Km as the concentration of substrate that gives half-maximal velocity.
